Experimental data from US20250249000A1, “SIK3 INHIBITORS FOR TREATING DISEASES RESISTANT TO DEATH RECEPTOR SIGNALLING” (IOMX THERAPEUTICS AG, priority 2022, published 2025).
“Also recorded” adds a separate entry of the source.

Key:
Format in all cases: cell-based
[1] = test system: murine colorectal carcinoma cell line MC38; assay: TNF induced apoptosis in MC38 cells in combination with SIK3 inhibitor; conditions: 1 ng/ml TNF plus E9 vs DMSO control, caspase 3/7 at 8 hours, annexin V and cytotox red at 24 hours, FIG. 3
Method: (§1) The experiments were done briefly as follows: murine colorectal carcinoma cell line MC38, murine triple negative breast cancer cell line EMT6 and human melanoma tumor cell line A375 were treated with 1 ng/ml TNF, 0.8 ng/ml murine death receptor 5 targeting antibody (clone MD5-1) and 10 ng/ml complexed TRAIL, respectively, or with the appropriate negative controls, in combination with the SIK3 inhibitor E9 and an associated DMSO control. The onset of tumor cell death was monitored 8 hours after treatment initiation by analyzing cleavage of effector caspases 3/7 using Caspase-Glo® assay from Promega according to manufacturer's protocol. In addition, 24 hours after treatment initiation, the increase in extracellular phosphatidylserine expression was measured by annexin V expression level and cell membrane disruption by cytotox red staining, both according to manufacturer's protocol.

[2] = test system: human melanoma tumor cell line A375; assay: Complexed TRAIL induced apoptosis in A375 cells in combination with SIK3 inhibitor; conditions: 10 ng/ml complexed TRAIL plus E9 vs DMSO control, caspase 3/7 at 8 hours, annexin V and cytotox red at 24 hours, FIG. 5
Method: as §1

[3] = test system: murine triple negative breast cancer cell line EMT6; assay: Death receptor 5 antibody (MD5-1) induced apoptosis in EMT6 cells in combination with SIK3 inhibitor; conditions: 0.8 ng/ml murine death receptor 5 targeting antibody (clone MD5-1) plus E9 vs DMSO control, caspase 3/7 at 8 hours, annexin V and cytotox red at 24 hours, FIG. 4
Method: as §1

## Cc1nc(Nc2ncc(C(=O)Nc3c(CF)csc3Cl)s2)cc(N2CCN(C)CC2)n1 [Compound E9, N-(2-chloro-4-(fluoromethyl)thiophen-3-yl)-2-((2-methyl-6-(4-methylpiperazin-1-yl)pyrimidin-4-yl)amino)thiazole-5-carboxamide]
[1]
  enhancement of death receptor induced apoptosis (caspase-3/7 cleavage, annexin V, cytotox red): potent enhancement of death receptor induced apoptosis; also recorded: enhanced death receptor mediated apoptosis
[2]
  enhancement of death receptor induced apoptosis (caspase-3/7 cleavage, annexin V, cytotox red): enhanced death receptor mediated apoptosis; also recorded: potent enhancement of death receptor induced apoptosis
[3]
  enhancement of death receptor induced apoptosis (caspase-3/7 cleavage, annexin V, cytotox red): potent enhancement of death receptor induced apoptosis; also recorded: enhanced death receptor mediated apoptosis
